Here are results for one molecule from PMC9133015 (Nature Communications, 2022).

Like-named read-outs stand apart in the source and are kept apart here.

Holding throughout (experiment): Kinase inhibitor specificity profiling (Reaction Biology Corporation)
Holding throughout (type): biochemical

Test [1] deals with T1, panel of 370 protein kinases (Homo sapiens, UniProt O00238).
T1 construct: purchased Reaction Biology Corporation (assay service)
Conditions: 2 h, kinase ALK6/BMPR1B; read-out: % Enzyme Activity (relative to DMSO controls).

In test [2] the target is T2, panel of 370 protein kinases (Homo sapiens, UniProt O00311).
T2 construct: purchased Reaction Biology Corporation (assay service)
As to conditions: 2 h, read-out: % Enzyme Activity (relative to DMSO controls), kinase CDC7/DBF4.

Test [3] has as its target T3, panel of 370 protein kinases (Homo sapiens, UniProt O15146).
T3 construct: purchased Reaction Biology Corporation (assay service)
As to conditions: 2 h, kinase MUSK; read-out: % Enzyme Activity (relative to DMSO controls).

Test [4] deals with T4, panel of 370 protein kinases (Homo sapiens, UniProt P06493).
T4 construct: purchased Reaction Biology Corporation (assay service)
Conditions: 2 h, read-out: % Enzyme Activity (relative to DMSO controls).

The target in test [5] is T5, panel of 370 protein kinases (Homo sapiens, UniProt P07948).
T5 construct: purchased Reaction Biology Corporation (assay service)
As to conditions: 2 h, kinase LYN; read-out: % Enzyme Activity (relative to DMSO controls).

The target in test [6] is T6, panel of 370 protein kinases (Homo sapiens, UniProt P12931).
T6 construct: purchased Reaction Biology Corporation (assay service)
Conditions: 2 h, kinase c-Src; read-out: % Enzyme Activity (relative to DMSO controls).

The target of test [7] is T7, panel of 370 protein kinases (Homo sapiens, UniProt P21802).
T7 construct: purchased Reaction Biology Corporation (assay service)
Conditions: 2 h, kinase FGFR2; read-out: % Enzyme Activity (relative to DMSO controls).

For test [8], the target named is T8, panel of 370 protein kinases (Homo sapiens, UniProt P23443).
T8 construct: purchased Reaction Biology Corporation (assay service)
Conditions: 2 h, kinase p70S6K/RPS6KB1; read-out: % Enzyme Activity (relative to DMSO controls).

For test [9], the target named is T9, panel of 370 protein kinases (Homo sapiens, UniProt P27361).
T9 construct: purchased Reaction Biology Corporation (assay service)
As to conditions: 2 h, kinase ERK1; read-out: % Enzyme Activity (relative to DMSO controls).

Test [10] concerns the target T10, panel of 370 protein kinases (Homo sapiens, UniProt P29317).
T10 construct: purchased Reaction Biology Corporation (assay service)
As to conditions: 2 h, kinase EPHA2; read-out: % Enzyme Activity (relative to DMSO controls).

For test [11], the target named is T11, panel of 370 protein kinases (Homo sapiens, UniProt P31751).
T11 construct: purchased Reaction Biology Corporation (assay service)
As to conditions: 2 h, kinase AKT2; read-out: % Enzyme Activity (relative to DMSO controls).

Test [12] concerns the target T12, panel of 370 protein kinases (Homo sapiens, UniProt P32298).
T12 construct: purchased Reaction Biology Corporation (assay service)
Conditions: 2 h, kinase GRK4; read-out: % Enzyme Activity (relative to DMSO controls).

The target of test [13] is T13, panel of 370 protein kinases (Homo sapiens, UniProt P42685).
T13 construct: purchased Reaction Biology Corporation (assay service)
Conditions: 2 h, kinase FRK/PTK5; read-out: % Enzyme Activity (relative to DMSO controls).

The target in test [14] is T14, panel of 370 protein kinases (Homo sapiens, UniProt P49840).
T14 construct: purchased Reaction Biology Corporation (assay service)
Conditions: 2 h, kinase GSK3a; read-out: % Enzyme Activity (relative to DMSO controls).

Test [15] addresses T15, panel of 370 protein kinases (Homo sapiens, UniProt P54762).
T15 construct: purchased Reaction Biology Corporation (assay service)
As to conditions: 2 h, kinase EPHB1; read-out: % Enzyme Activity (relative to DMSO controls).

The target of test [16] is T16, panel of 370 protein kinases (Homo sapiens, UniProt P57078).
T16 construct: purchased Reaction Biology Corporation (assay service)
As to conditions: 2 h, kinase RIPK4; read-out: % Enzyme Activity (relative to DMSO controls).

Test [17] has as its target T17, panel of 370 protein kinases (Homo sapiens, UniProt Q13233).
T17 construct: purchased Reaction Biology Corporation (assay service)
Conditions: 2 h, kinase MEKK1; read-out: % Enzyme Activity (relative to DMSO controls).

For test [18], the target named is T18, panel of 370 protein kinases (Homo sapiens, UniProt Q15759).
T18 construct: purchased Reaction Biology Corporation (assay service)
Conditions: 2 h, kinase P38b/MAPK11; read-out: % Enzyme Activity (relative to DMSO controls).

Test [19] addresses T19, panel of 370 protein kinases (Homo sapiens, UniProt Q8IVT5).
T19 construct: purchased Reaction Biology Corporation (assay service)
Conditions: 2 h, kinase KSR1; read-out: % Enzyme Activity (relative to DMSO controls).

The target in test [20] is T20, panel of 370 protein kinases (Homo sapiens, UniProt Q9NRH2).
T20 construct: purchased Reaction Biology Corporation (assay service)
Conditions: 2 h, kinase SNRK; read-out: % Enzyme Activity (relative to DMSO controls).

For test [21], the target named is T21, panel of 370 protein kinases (Homo sapiens, UniProt Q9UHD2).
T21 construct: purchased Reaction Biology Corporation (assay service)
As to conditions: 2 h, kinase TBK1; read-out: % Enzyme Activity (relative to DMSO controls).

T4 sequence (P06493 whole entry): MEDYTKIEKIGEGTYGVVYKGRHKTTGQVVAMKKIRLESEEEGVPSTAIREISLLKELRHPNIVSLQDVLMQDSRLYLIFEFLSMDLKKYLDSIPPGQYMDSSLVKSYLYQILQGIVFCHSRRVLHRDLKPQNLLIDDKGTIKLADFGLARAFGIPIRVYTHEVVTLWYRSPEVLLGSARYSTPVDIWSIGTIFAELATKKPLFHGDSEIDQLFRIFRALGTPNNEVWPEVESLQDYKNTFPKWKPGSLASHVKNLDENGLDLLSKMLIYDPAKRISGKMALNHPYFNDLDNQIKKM
T13 sequence (P42685 whole entry): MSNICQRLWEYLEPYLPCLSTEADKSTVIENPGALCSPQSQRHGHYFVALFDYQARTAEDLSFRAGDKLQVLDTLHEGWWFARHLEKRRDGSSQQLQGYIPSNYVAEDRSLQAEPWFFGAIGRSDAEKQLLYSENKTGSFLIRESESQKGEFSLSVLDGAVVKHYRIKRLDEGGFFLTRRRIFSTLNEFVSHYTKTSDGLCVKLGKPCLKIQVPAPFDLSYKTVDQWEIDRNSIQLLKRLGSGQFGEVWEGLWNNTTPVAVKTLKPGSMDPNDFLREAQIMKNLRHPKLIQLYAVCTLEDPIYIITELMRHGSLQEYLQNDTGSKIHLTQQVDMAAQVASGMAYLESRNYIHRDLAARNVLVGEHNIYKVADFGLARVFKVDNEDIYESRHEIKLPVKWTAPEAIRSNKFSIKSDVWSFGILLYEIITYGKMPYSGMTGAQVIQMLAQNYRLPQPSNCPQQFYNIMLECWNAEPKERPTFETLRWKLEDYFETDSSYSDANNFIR
T15 sequence (P54762 18-984): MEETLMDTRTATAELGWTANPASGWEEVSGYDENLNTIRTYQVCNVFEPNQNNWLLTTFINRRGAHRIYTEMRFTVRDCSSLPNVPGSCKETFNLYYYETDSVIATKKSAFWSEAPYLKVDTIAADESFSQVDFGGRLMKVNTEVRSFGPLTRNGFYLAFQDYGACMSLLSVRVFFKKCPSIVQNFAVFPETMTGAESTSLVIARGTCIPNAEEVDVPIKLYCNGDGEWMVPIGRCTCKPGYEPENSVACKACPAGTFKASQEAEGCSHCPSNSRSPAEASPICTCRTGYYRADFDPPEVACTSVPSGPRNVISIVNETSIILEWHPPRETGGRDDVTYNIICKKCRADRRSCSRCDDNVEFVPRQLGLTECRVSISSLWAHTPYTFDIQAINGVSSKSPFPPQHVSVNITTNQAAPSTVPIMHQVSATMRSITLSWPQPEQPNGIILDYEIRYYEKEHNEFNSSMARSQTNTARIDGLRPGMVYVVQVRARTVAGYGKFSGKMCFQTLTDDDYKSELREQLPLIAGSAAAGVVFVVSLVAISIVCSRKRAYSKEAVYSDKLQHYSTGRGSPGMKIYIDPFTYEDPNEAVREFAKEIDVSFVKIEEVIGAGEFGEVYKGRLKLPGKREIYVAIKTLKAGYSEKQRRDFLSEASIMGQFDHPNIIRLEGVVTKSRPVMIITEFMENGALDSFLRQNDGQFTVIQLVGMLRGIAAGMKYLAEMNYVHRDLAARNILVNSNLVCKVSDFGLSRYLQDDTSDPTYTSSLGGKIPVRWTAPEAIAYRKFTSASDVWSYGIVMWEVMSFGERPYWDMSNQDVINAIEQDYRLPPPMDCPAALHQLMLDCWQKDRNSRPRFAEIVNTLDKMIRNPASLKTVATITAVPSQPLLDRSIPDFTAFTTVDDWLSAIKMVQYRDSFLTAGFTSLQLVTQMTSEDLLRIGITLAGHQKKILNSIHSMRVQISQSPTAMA
T7 sequence (P21802 22-821): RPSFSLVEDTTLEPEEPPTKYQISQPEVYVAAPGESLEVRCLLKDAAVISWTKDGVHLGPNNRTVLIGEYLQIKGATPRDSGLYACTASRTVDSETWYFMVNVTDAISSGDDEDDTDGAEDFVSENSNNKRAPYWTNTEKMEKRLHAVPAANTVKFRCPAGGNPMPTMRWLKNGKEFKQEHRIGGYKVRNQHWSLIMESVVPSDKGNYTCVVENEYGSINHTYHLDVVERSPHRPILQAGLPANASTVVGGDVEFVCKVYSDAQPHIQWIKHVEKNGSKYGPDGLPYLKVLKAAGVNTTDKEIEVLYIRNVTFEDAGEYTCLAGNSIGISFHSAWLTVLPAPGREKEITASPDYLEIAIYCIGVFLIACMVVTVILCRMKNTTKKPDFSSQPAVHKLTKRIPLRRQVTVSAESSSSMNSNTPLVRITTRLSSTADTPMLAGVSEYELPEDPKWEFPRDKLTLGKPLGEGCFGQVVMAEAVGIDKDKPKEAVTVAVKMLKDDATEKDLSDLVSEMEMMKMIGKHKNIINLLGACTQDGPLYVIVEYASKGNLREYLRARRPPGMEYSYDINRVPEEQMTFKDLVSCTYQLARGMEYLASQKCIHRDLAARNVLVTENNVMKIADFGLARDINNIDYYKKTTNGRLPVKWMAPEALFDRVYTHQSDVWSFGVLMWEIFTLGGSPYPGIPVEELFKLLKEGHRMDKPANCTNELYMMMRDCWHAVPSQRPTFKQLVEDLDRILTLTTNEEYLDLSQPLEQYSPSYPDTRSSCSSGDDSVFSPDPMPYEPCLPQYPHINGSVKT
T14 sequence (P49840 whole entry): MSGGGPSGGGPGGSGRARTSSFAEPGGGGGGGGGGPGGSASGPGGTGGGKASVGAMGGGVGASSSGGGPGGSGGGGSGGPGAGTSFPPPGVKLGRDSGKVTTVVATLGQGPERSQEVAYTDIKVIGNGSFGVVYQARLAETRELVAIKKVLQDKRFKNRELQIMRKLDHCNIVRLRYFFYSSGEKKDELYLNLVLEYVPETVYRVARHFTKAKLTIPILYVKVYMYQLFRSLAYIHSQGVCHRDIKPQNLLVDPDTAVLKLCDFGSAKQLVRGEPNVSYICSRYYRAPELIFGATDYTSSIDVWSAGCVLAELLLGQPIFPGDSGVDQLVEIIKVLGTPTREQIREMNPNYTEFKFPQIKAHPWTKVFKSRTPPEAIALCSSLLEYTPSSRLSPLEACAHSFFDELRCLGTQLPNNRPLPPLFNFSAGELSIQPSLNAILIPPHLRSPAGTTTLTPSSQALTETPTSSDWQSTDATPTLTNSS
T12 sequence (P32298 whole entry): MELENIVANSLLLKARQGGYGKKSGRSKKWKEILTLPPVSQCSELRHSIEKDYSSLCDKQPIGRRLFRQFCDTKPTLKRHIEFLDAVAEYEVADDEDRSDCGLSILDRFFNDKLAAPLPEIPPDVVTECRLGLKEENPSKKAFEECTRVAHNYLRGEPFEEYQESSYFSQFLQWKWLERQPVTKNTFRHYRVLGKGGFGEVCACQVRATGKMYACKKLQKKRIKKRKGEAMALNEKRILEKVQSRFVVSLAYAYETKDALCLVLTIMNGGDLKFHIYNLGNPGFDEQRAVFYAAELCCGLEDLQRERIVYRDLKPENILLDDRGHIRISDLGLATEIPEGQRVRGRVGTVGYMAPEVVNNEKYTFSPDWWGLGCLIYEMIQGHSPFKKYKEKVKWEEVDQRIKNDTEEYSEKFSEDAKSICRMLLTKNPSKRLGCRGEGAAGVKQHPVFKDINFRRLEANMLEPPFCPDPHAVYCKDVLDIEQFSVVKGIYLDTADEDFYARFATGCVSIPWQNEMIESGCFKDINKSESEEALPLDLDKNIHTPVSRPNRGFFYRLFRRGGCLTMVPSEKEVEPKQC
T18 sequence (Q15759 whole entry): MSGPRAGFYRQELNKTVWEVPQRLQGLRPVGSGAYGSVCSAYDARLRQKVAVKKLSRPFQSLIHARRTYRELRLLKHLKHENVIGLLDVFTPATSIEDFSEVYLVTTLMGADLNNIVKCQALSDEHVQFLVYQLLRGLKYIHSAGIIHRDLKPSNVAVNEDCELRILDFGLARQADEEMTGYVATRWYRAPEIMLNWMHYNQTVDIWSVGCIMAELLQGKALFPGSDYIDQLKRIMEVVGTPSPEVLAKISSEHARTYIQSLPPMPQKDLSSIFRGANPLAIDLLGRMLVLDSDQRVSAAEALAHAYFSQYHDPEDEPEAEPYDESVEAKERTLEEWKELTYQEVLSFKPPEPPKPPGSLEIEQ
T10 sequence (P29317 24-976): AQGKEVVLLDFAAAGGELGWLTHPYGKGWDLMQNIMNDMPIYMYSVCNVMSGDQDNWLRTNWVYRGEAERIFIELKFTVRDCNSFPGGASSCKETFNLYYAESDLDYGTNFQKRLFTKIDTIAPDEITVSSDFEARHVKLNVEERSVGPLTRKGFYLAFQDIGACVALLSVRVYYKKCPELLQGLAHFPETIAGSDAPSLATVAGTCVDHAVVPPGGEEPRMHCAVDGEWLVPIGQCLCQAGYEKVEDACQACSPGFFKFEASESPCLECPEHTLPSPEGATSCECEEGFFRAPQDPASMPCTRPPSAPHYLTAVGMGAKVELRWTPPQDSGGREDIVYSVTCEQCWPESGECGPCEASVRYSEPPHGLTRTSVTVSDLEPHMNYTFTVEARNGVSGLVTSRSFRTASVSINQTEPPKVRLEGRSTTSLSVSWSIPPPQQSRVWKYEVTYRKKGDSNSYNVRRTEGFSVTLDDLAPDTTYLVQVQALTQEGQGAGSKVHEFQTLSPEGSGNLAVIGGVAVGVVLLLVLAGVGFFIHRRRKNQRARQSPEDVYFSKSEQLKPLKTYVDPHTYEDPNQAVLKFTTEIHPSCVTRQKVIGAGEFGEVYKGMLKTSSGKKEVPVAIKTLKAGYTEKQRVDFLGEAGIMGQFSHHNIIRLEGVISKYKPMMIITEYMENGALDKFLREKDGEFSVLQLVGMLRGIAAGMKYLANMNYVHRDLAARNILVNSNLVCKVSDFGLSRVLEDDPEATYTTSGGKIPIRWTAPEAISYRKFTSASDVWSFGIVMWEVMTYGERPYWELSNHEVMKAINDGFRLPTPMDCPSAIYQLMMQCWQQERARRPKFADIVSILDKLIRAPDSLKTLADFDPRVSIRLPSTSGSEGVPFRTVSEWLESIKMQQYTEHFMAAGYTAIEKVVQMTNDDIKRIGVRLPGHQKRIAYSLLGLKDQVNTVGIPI

Take `CCN1CCN(C(=O)c2ccc(Nc3ncc(F)c(-c4ccc5nc(N(C)C)sc5c4)n3)nc2)CC1` [YK-2-69]: the remaining activity at 1 µM in test [1] worked out at 90.5%; in [2], 121%; in test [3], 89.2%; in [4] (kinase CDK1/cyclin A) it was 116%; in test [4] (kinase CDK1/cyclin B), 119%; in test [4] (kinase CDK1/cyclin E), 103%. Also, the remaining activity at 1 µM was determined as 93.9% in test [5]; 99.7% in test [6]; 86.2% in test [7]; 99.7% in test [8]; 101% in test [9]; 103% in test [10]. Besides, the remaining activity at 1 µM was found to be 98.6% in test [11]; 95.1% in test [12]; 108% in test [13]; 42.3% in [14]; 94% in [15]; 92% in [16]. Further, the remaining activity at 1 µM in test [17] is 99.7%; in test [18], 94.9%; in test [19] it was 94.3%; in [20], 95.4%; in test [21], 93.1%.
